These results are taken from US6660724B1, “Compounds and pharmaceutical compositions containing them” (Ilex Products, Inc., priority 1995, dated 2003).

One data set deals with Lp(a). As to conditions: man, reported in the literature; cited from earlier work.
For data set [1] the following is noted: high doses necessary for efficacy (4 g/day); cited from earlier work.

In the case of `CCOP(=O)(CNCc1cccnc1-c1cc(OC)c(O)c(OC)c1)OCC`, the melting point (in general, the temperature, or range, at which the solid turns liquid) fell in the range of 99 to 101 °C. Regarding `CCOP(=O)(CNCc1ccnc(-c2cc(OC)c(O)c(OC)c2)c1)OCC`, the melting point lay within 124 to 126 °C.

In the case of `CC[C@H](C)C(=O)O[C@H]1C[C@@H](C)C=C2C=C[C@H](C)[C@H](CC[C@@H]3C[C@@H](O)CC(=O)O3)[C@H]21` [lovastatin], the “effect on Lp(a) levels” value in the data set on Lp(a) is “do not affect Lp(a) levels”. Turning to `O=C(O)c1cccnc1` [nicotinic acid], in data set [1], the serious side-effects entry is “flushing, vasodilation and hepatotoxicity”. In addition, the “effect on Lp(a) levels” value in the data set on Lp(a) is on record as “lower Lp(a)”. `CC(C)(Sc1cc(C(C)(C)C)c(O)c(C(C)(C)C)c1)Sc1cc(C(C)(C)C)c(O)c(C(C)(C)C)c1` [probucol]: the “effect on Lp(a) levels” value in the data set on Lp(a) is on record as “equally ineffective”.
